Earlier results, collected in paper PMC10851415 (Biochemistry, 2024).

Tested on: influenza
Details: in vivo, po; cited from earlier work

## COC(=O)OCOc1c2n(ccc1=O)N([C@@H]1c3ccccc3SCc3c1ccc(F)c3F)[C@@H]1COCCN1C2=O [BXM, Baloxavir marboxil]
  reduce fever in an average of: 24 h
